Measured values taken from patent US20260265055A1, “Sulfine-Based Compounds for Generating Hydrogen Persulfide” (Brown University, priority 2023, published 2026).

What was measured:
[1] = Monitoring H2S2 formation from the TTS-TAGDD hybrid compound 3 (SSP4, 12 h); details: over 12 hours
Experimental: Monitoring H2S2 formation from the TTS-TAGDD hybrid compound 3: TTS and 3 were prepared as 1 mM solutions in DMSO. L-cysteine and Na2S2 were prepared at 4 mM and 1 mM in MilliQ H2O, respectively. SSP4 was dissolved in DMSO to obtain a 200 μM stock solution. CTAB was dissolved in ethanol to yield a 2 mM stock solution. 50 mM PBS buffer (pH 7.4) was added to individual wells of a black polystyrene, flat-bottomed clear 96-well plate, followed by TTS (25 μM) or 3 (25 μM) then cysteine (100 μM) or Na2S2 (25 μM). Samples were mixed by pipetting up and down and incubated in the dark at room temperature (rt) for 30 min. Next, CTAB (50 μM) was added to all wells followed by SSP4 (5 μM), and samples were mixed by pipetting up and down. Samples were then incubated in the dark at room temperature for another 30 min before being measured on a Molecular Devices SpectraMax iD3 Multi-Mode Microplate Reader (fluorescence mode; kinetics measurement type; emission 535 nm; excitation 485 nm; integration time […], low PMT sensitivity, attenuation 1, read height 1.00 mm; total run time: 12 hours; 25 cycles; interval: 0.5 hours). Data was graphed as a time dependent fluorescence response, with F0 as the SSP4 only condition. The fluorescence of Na2S2 over time was not represented in the line graph presented due to the compound's known instability. Data obtained from the 12 h time point including from Na2S2 was also represented in a bar graph for greater clarity. Results were expressed as mean±SEM (n=3).

GAPDH = molecular target: T1, GAPDH (Oryctolagus cuniculus, UniProt P46406); test: GAPDH protein S-persulfidation (SSP4 fluorescence, LC-MS/MS); format: biochemical, rabbit; details: reduced GAPDH 100 μM treated with the reagent only (1 mM)
T1 construct: GAPDH (from rabbit muscle, #G2267, Sigma-Aldrich); purchased Sigma-Aldrich G2267; host or cells: rabbit muscle (tissue-purified)
Experimental: One of the primary functions of H2S2 is to induce protein S-persulfidation. Existing methods treat proteins with Na2S2 directly to obtain the persulfidated proteins. The present disclosure contemplates the use of TTS and H2S to persulfidate proteins as a comparison with Na2S2. GAPDH was used as the protein model and its persulfidation was evaluated by SSP4 using a protocol described in Shieh, M. et al., Shining a light on SSP4: a comprehensive analysis and biological applications for the detection of sulfane sulfurs. Redox Biol. 2022, 56, 102433 and Ni, X. et al., A sweet H2S/H2O2 dual release system and specific protein S-persulfidation mediated by thioglucose/glucose oxidase. J. Am. Chem. Soc. 2021, 143, 13325-13332. Reduced GAPDH (100 μM) was individually treated with 10 eq. of TTS+Na2S or Na2S2, as well as control reagents (TTS or Na2S only). The protein samples were then purified using Zeba Spin Desalting Columns (7K MWCO), diluted (to 10 μM), and treated with SSP4 (5 μM). Fluorescence signals were recorded to reflect persulfidation levels. […] To provide further evidence of persulfidation in the GAPDH system, TTS+Na2S-treated GAPDH was alkylated with HPE-IAM to stabilize the protein persulfides.
216 μL of PBS (50 mM, pH 7.4) was added to 3.9 mg of GAPDH (from rabbit muscle, #G2267, Sigma-Aldrich) to obtain a concentration of 500 μM (MW: 36 kDa). DTT (10 mM in DMSO, 11.35 μL) was added for a final equal concentration with the GAPDH. The solution was incubated in the dark at room temperature for 30 min. Zeba 7K MWCO spin columns were prepared and used according to manufacturer's instructions with 3 PBS washes. Excess reductant was removed by column purification with the Zeba 7K MWCO columns. The resulting reduced protein concentration was determined by the absorbance at 280 nm (εmM=30.4 mM-1 cm-1) using the Nanodrop One Microvolume UV-Vis Spectrophotometer (ThermoFisher Scientific). For controls, reduced GAPDH was treated with NEM (1:5 equiv.) and incubated at rt in the dark for 30 min before excess NEM was removed by the Zeba 7K MWCO columns. Next, the reduced protein was diluted to a final concentration of 100 μM in a final volume of 100 μL and treated with TTS (10 μL of 10 mM in DMSO for a final concentration of 1 mM), Na2S (10 μL of 10 mM in MilliQ H2O for a final concentration of 1 mM), both TTS and Na2S, or Na2S2 (10 μL of 10 mM in MilliQ H2O for a final concentration of 1 mM). For example, if the reduced protein (361 μM) was only to be treated with TTS, 62.3 μL of PBS (50 mM, pH 7.4) would first be added to an Eppendorf tube, followed by 27.7 μL of protein, and followed by 10 μL of TTS. TTS+Na2S and Na2S2 samples were also prepared at the concentrations above without any protein, where PBS (50 mM, pH 7.4) was used in place of the proteins (volume-wise). Samples were incubated at room temperature for 30 min in the dark before being purified by Zeba 7K MWCO columns (three times to ensure proper removal of excess treatment molecules) and quantified by absorbance. […] All samples were then incubated with SSP4 (5 μL of 100 μM in DMSO for a final concentration of 5 μM) in individual wells of a black clear flat bottom 96-well plate. The final volume was 100 μL. For example, if the persulfidated protein (99.5 μM) was to be examined, 84.95 μL of PBS (50 mM, pH 7.4) would first be added to a well, followed by 10.05 μL of protein, and then followed by 5 μL of SSP4. Incubation occurred at room temperature in the dark for 30 min before being measured on the SpectraMax iD3 microplate reader (ex: 485 nm; em: 525 nm).

HeLa cells = test: Live cell imaging of H2S2 formation with SSP4; format: cell-based; details: compound only, 30 min
Experimental: HeLa cells were seeded at ~7000 cells/well in a 96-well clear flat-bottomed BioLite plate (ThermoFisher Scientific, #130188) in DMEM/F12 (1:1) (Gibco, Invitrogen, #11330-032) medium supplemented with 10% fetal bovine serum (FBS) at 37° C., 5% CO2 overnight.
Preparation before cell treatment: Na2S and Na2S2 stocks were prepared at 10 mM in sterile 1×PBS. TTS and TT were prepared at 10 mM concentrations in DMSO. They were then diluted to 50 μM concentrations in serum-free Fluorobrite DMEM in individual Eppendorf tubes (0.5% DMSO). Na2S (final concentration=100 μM) was added to the Eppendorf tube containing Fluorobrite DMEM and TTS or TT immediately before being added to the cells. Compounds were mixed by pipetting up and down prior to cell addition.
Cell treatment: Culturing media was aspirated from all wells, and cells were washed twice with 1×PBS. Compounds were added to cells (200 μL/well) and incubated for 30 min at 37° C., 5% CO2. While cells were incubating, SSP4 treatment was prepared by first adding 5 mM CTAB in ethanol to Fluorobrite DMEM followed by 6.125 mM SSP4 in DMSO to final concentrations of 100 μM and 5 μM, respectively, in a tube. The final volume was 5 mL (0.08% DMSO). Compounds were mixed by pipetting up and down prior to cell addition. After incubation, media was aspirated, and cells were washed twice with 1×PBS. SSP4 treatment was added to all wells (100 μL/well), and cells were incubated for 30 min at 37° C., 5% CO2 for 30 min. Media was then aspirated, and cells were washed three times with 1×PBS. Fluorobrite DMEM was added to all wells before imaging on the Keyence All-in-One Fluorescence Microscope (BZ-X810) (excitation: 470/40 nm; emission: 525/50 nm).
As shown in FIGS. 4(A)-(D), HeLa cells were treated with TTS, TTS+H2S, or TT for 30 min before the fluorescent sensor SSP4 was applied to the cells to monitor the formation of H2S2. […] Na2S2 was used as the positive control in this study (FIG. 4D). Other control studies including TT+H2S, H2S only, and SSP4 only were also performed. […] FIG. 4H is a graph of fluorescence intensities of SSP4 staining. Data are mean values ±SEM calculated using ImageJ. (n=9, where three different images were obtained from each of three samples and quantified).

T1 sequence (P46406 whole entry): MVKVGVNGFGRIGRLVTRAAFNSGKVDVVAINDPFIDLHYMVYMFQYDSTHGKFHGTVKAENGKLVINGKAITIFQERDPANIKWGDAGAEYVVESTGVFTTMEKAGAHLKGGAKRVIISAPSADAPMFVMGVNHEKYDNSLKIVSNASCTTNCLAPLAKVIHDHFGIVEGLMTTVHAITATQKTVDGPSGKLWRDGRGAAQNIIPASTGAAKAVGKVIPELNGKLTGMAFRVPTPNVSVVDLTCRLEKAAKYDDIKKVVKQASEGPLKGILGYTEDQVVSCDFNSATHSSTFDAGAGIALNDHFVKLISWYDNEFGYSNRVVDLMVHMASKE

Compound	H2S2 formation monitored by SSP4 signals ([1]; 25 μM compound + Cys 100 μM)	SSP4 fluorescence ([1]; 25 μM compound only)	SSP4 fluorescence of persulfidated GAPDH (GAPDH)	SSP4 fluorescence in HeLa cells (HeLa cells)
CC(=O)SC(SC(C)=O)c1cccc(OC(=O)c2ccc(=S=O)sc2)c1 [Compound 3]	steady and continuous H2S2 formation	did not give any notable fluorescence	–	–
[Na+].[Na+].[S-][S-] [Na2S2, reference compound]	–	–	strong fluorescence	–
[Na+].[Na+].[S-2] [Na2S, reference compound]	–	–	did not give any notable fluorescence	Obvious fluorescence in these samples was not observed
